# Test results: patent publication US9884860B2, “Fused pyrroledicarboxamides and their use as pharmaceuticals” (SANOFI, priority 2012, dated 2018)
# Target: Human TASK-1 channels (Homo sapiens (Human), UniProt O14649)
# Assay: Determination of the activity on the TASK-1 channel in Xenopus oocytes (two-microelectrode voltage clamp)
# Format: cell-based
# Details: compound concentration 5 μM
# Experimental: Determination of the activity on the TASK-1 channel in Xenopus oocytes
# Human TASK-1 channels were expressed in Xenopus oocytes. For this purpose, oocytes were isolated from Xenopus laevis and defoliculated. Subsequently, TASK-1-encoding RNA synthesized in vitro was injected into the oocytes. After two days of TASK-1 protein expression, TASK-1 currents were measured by two-microelectrode voltage clamp. Data were acquired and analyzed using a TEC-10cx amplifier (NPI Electronic, Tamm, Germany) connected to an ITC-16 interface (Instrutech Corp., Long island, USA) and Pulse software (HEKA Elektronik, Lambrecht, Germany). Oocytes were clamped to −90 mV and TASK-1 mediated currents were measured during 500 ms voltage pulses to 40 mV. Oocytes were continuously superfused with ND96 buffer containing 98 mM sodium chloride, 2 mM potassium chloride, 1.8 mM calcium chloride, 1 mM magnesium chloride, 5 mM 4-(2-hydroxyethyl)-piperazine-1-ethanesulfonic acid (HEPES: pH adjusted to 7.4 with sodium hydroxide). All experiments were performed at room temperature. Test compounds were consecutively added to the bath solution at rising concentrations. Compound effects were calculated as the percentage inhibition of TASK-1 control current before compound addition. IC50 values were obtained by fitting the data to the general dose-response equation.
# Sequence of Human TASK-1 channels (O14649 whole entry): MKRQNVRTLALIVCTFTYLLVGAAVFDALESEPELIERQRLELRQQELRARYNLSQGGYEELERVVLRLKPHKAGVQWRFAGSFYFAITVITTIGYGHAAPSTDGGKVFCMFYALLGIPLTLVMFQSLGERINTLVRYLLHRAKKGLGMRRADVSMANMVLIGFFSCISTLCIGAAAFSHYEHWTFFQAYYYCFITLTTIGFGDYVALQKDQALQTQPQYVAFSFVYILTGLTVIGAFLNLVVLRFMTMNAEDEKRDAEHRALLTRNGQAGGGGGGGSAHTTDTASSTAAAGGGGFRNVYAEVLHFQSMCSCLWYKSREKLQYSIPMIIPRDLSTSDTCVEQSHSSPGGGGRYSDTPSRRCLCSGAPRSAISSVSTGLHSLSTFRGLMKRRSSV
row,inhibition at 5 µM [%],Compound
1,91,"CC[C@@H](NC(=O)c1cc(C(=O)NCc2ccc3cc[nH]c3c2)n2c1COCC2)c1ccccc1 [16je, 3,4-Dihydro-1H-pyrrolo[2,1-c][1,4]oxazine-6,8-dicarboxylic acid 6-[(1H-indol-6-ylmethyl)-amide] 8-[((R)-1-phenyl-propyl)-amide]]"

# Same assay, conditions: human TASK-1 expressed in Xenopus oocytes, room temperature; read-out: IC50 value for TASK-1 inhibition
row,Compound,IC50 [nM]
1,"3,4-Dihydro-1H-pyrrolo[2,1-c][1,4]oxazine-6,8-dicarboxylic acid 8-[((R)- 1-phenyl-propyl)-amide] 6-{[(R)-1-(5-trifiuoromethyl-pyridin-3-yl)- propyl]-amide} [16hn]",690
2,"CC[C@@H](NC(=O)c1cc(C(=O)NC(C)c2cnccn2)n2c1COCC2)c1ccccc1 (single isomer, unassigned; diastereomer 1) [16if]",1100
3,"CC[C@@H](NC(=O)c1cc(C(=O)NC(C)c2cnccn2)c2n1CCOC2)c1ccccc1 (single isomer, unassigned; diastereomer 1) [16jw]",2860
4,"CC(NC(=O)c1cc(C(=O)N[C@@H](c2ccc(F)cc2)C(C)C)n2c1COCC2)c1cnccn1 (single isomer, unassigned; diastereomer 1) [16lq]",700
5,"CCC(NC(=O)c1cc(C(=O)N[C@H](CC)c2ccccc2)c2n1CCOC2)c1cnc(OC)nc1 (single isomer, unassigned; diastereomer 2) [16hv]",760
6,CCC(NC(=O)c1cc(C(=O)N2CCC[C@@H]2C)n2c1COCC2)c1ccc(S(F)(F)(F)(F)F)cc1 (some centres unmarked) [16bf],740
7,"CC[C@@H](NC(=O)c1cc(C(=O)NCc2cncc(F)c2)n2c1CCCC2)c1ccccc1 [16nb, 5,6,7,8-Tetrahydro-indolizine-1,3-dicarboxylic acid 3-[(5-fluoro-pyridin-3-ylmethyl)-amide] 1-[((R)-1-phenyl-propyl)-amide]]",460

# Results, then the compound that gave them:
row,IC50 [nM],Compound
1,250,"3,4-Dihydro-1H-pyrrolo[2,1-c][1,4]oxazine-6,8-dicarboxylic acid 8-{[(R)- 1-(6-rnethoxy-pyridin-3-yl)-propy]-amide} 6-[((R)-1-phenyl-propyl)- amide] [16jo]"
2,210,"5,6,7,8-Tetrahydro-indolizine-1,3-dicarboxylic acid 3-[(3,5-dimethyl- isoxazol-4-yl)-amide] 1-[((R)-1-phenyl-propyl)-amide] [16nd]"
3,430,"CC[C@@H](NC(=O)c1cc(C(=O)NC(C)c2cnccn2)c2n1CCOC2)c1ccc(F)cc1F (single isomer, unassigned; diastereomer 1) [16pl]"
4,280,"CCC(NC(=O)c1cc(C(=O)N2CCC[C@@H]2C)n2c1COCC2)c1ncc(C(F)(F)F)s1 (single isomer, unassigned; diastereomer 2) [16ce]"
5,200,"CC[C@@H](NC(=O)c1cc(C(=O)N2CCC[C@@H]2C)n2c1COCC2)c1ccc2c(c1)OC(F)(F)O2 [16bz, 6-((S)-2-Methyl-pyrrolidine-1-carbonyl)-3,4-dihydro-1H-pyrrolo[2,1-c][1,4]oxazine-8-carboxylic acid [(R)-1-(2,2-difluoro-benzo[1,3]dioxol-5-yl)-propyl]-amide]"
6,190,"CC[C@H](NC(=O)c1cc(C(=O)N[C@H](C)c2ccc(F)cc2)n2c1COCC2)c1cnc(OC)cn1 [16dv, 3,4-Dihydro-1H-pyrrolo[2,1-c][1,4]oxazine-6,8-dicarboxylic acid 6-{[(R)-1-(4-fluoro-phenyl)-ethyl]-amide} 8-{[(S)-1-(5-methoxy-pyrazin-2-yl)-propyl]-amide}]"
